# Laboratory results reported in patent publication US20050250677A1, “Glycopeptide antibiotic derivatives” (priority 2002, published 2005).
# Where two headings read alike, the source gives them in different places.
# Columns and labels:
# FCV = experiment: Feline corona virus assay in Feline Crandel kidney cells (MTS); type: cell-based; settings: for EC50: FCV in FCK cells, read-out: EC50 FCV
# Method: Feline Crandel kidney cells were seeded in 96-well microtiter plates at 24,000 cells/well. Then, 24 hrs later, an appropriate inoculum of FCV is added together with 5-fold dilutions of the test compounds. After 4 days, a MTS/PMS solution was added to each well. Following a 90 min incubation period at 37° C., the optical density of the wells was read at 498 nm in a microplate reader.
# FCK cells = settings: read-out: CC50 FCK; FCK cells
# HIV-1 (IIIB) = experiment: Inhibition of HIV-1 (IIIB)-induced cytopathicity (giant cell formation) in CEM cells; type: cell-based; settings: read-out: EC50 HIV-1 (concentration required to inhibit HIV-induced giant cell formation by 50%); HIV-1, CEM cell cultures
# Method: (§1) A variety of glycopeptide antibiotic derivatives of vancomycin, eremomycin and teicoplanin including their aglycon derivatives were evaluated for their inhibitory activity against HIV-1 (IIIB) and HIV-2(ROD) in CEM cell cultures.
# HIV-2(ROD) = experiment: Inhibition of HIV-2 (ROD)-induced cytopathicity (giant cell formation) in CEM cells; type: cell-based; settings: read-out: EC50 HIV-2 (concentration required to inhibit HIV-induced giant cell formation by 50%); HIV-2, CEM cell cultures
# Method: as §1
# murine leukemia L1210 = experiment: Cytostatic activity assay, L1210 cells; type: cell-based; settings: read-out: IC50 L1210 (compound concentration required to inhibit tumor cell proliferation by 50%)
# [1] = system: human lymphocyte Molt4/clone 8; experiment: Cytostatic activity assay, Molt4/clone 8 cells; type: cell-based; settings: read-out: IC50 Molt4/C8 (compound concentration required to inhibit tumor cell proliferation by 50%)
# human lymphocyte CEM = experiment: Cytostatic activity assay, CEM cells; type: cell-based; settings: read-out: IC50 CEM (compound concentration required to inhibit tumor cell proliferation by 50%)
# VZV (wild-type strains) = experiment: Anti-VZV assay (wild-type strains): virus-induced cytopathicity in HEL cell cultures; type: cell-based, varicella-zoster virus; settings: for EC50: HEL cell cultures
# HEL cells [2] = settings: anti-VZV table
# HEL cells [3] = settings: read-out: CC50 (HEL); HEL cells; anti-VZV table
# [4] = VZV strain OKA, read-out: EC50 VZV (OKA)
# [5] = VZV strain YS, read-out: EC50 VZV (YS)
SMILES,activity against FCV (FCV),EC50 (FCV),CC50 (FCK cells),EC50 (HIV-1 (IIIB)),EC50 (HIV-2(ROD)),IC50 (murine leukemia L1210),IC50 [1],IC50 (human lymphocyte CEM),EC50 (VZV (wild-type strains); [4]),EC50 (VZV (wild-type strains); [5]),MTC (HEL) (HEL cells [2]),CC50 (HEL cells [3]),activity against VZV (VZV (wild-type strains))
CCCCCCCCCCCCCCCCCCNCc1c(O)cc2c(c1O)-c1cc(ccc1O)C1NC(=O)C3NC(=O)C(CC(N)=O)NC(=O)C(NC(=O)C(CC(C)C)NC)C(O)c4ccc(c(Cl)c4)Oc4cc3cc(c4OC3OC(CO)C(O)C(O)C3OC3CC(C)(N)C(O)C(C)O3)Oc3ccc(cc3)C(OC3CC(C)(N)C(O)C(C)O3)C(NC1=O)C(=O)NC2C(=O)O (stereo not drawn) [Compound 63],active,3.4 µM,15 µM,,,,,,,,,,
CCCCCCCCCCNC(=O)C1NC(=O)C2NC(=O)C(NC(=O)C3NC(=O)C4NC(=O)C(Cc5ccc(c(Cl)c5)Oc5cc3cc(c5O)Oc3ccc(cc3Cl)C2O)NC(=O)C(N)c2ccc(O)c(c2)Oc2cc(O)cc4c2)c2ccc(O)c(c2)-c2c1cc(O)c(CNCCCN(C)C)c2O (stereo not drawn) [Compound 20],,,,4.5 ± 0.7 µM,44 ± 1.4 µM,17 ± 9 µM,58 ± 12 µM,53 ± 11 µM,2 µM,2.3 µM,≧5-20 μM,169 µM,
NC1C(=O)NC2Cc3ccc(c(Cl)c3)Oc3cc4cc(c3O)Oc3ccc(cc3Cl)C(O)C3NC(=O)C(NC(=O)C4NC(=O)C(NC2=O)c2cc(O)cc(c2)Oc2cc1ccc2O)c1ccc(O)c(c1)-c1c(cc(O)c(CN2CCN(N=Cc4ccc(Cl)cc4)CC2)c1O)C(C(=O)O)NC3=O (stereo not drawn) [Compound 17],,,,8 ± 2.8 µM,22 ± 3.5 µM,97 ± 4.3 µM,> 100 µM,> 100 µM,4.1 µM,4.2 µM,≧20-200 μM,> 50 µM,
CCCCCCCCCC[N+](C)(C)CCCNCc1c(O)cc2c(c1O)-c1cc(ccc1O)C1NC(=O)C3NC(=O)C4NC(=O)C(Cc5ccc(c(Cl)c5)Oc5cc3cc(c5O)Oc3ccc(cc3Cl)C(O)C(NC1=O)C(=O)NC2C(=O)O)NC(=O)C(N)c1ccc(O)c(c1)Oc1cc(O)cc4c1 (stereo not drawn) [Compound 33],,,,2.2 µM,7.5 ± 0.7 µM,51 ± 26 µM,65 ± 1 µM,74 ± 5 µM,≥ 5 µM,2.4 µM,5 to 50 µM,≥ 200 µM,
CCCCCCCCCC[N+](C)(C)CCCNCc1c(O)cc2c(c1O)-c1cc(ccc1O)C1NC(=O)C3NC(=O)C4NC(=O)C(Cc5ccc(c(Cl)c5)Oc5cc3cc(c5O)Oc3ccc(cc3Cl)C(O)C(NC1=O)C(=O)NC2C(=O)NCCO)NC(=O)C(N)c1ccc(O)c(c1)Oc1cc(O)cc4c1 (stereo not drawn) [Compound 36],,,,2.1 ± 0.14 µM,4.2 ± 2.47 µM,12 ± 0.1 µM,73 ± 34 µM,≥ 100 µM,≥ 5 µM,1.9 µM,≧20-50 μM,> 200 µM,
CCCCCCCCCCNCc1c(O)cc2c(c1O)-c1cc(ccc1O)C1NC(=O)C3NC(=O)C4NC(=O)C(Cc5ccc(c(Cl)c5)Oc5cc3cc(c5O)Oc3ccc(cc3Cl)C(O)C(NC1=O)C(=O)NC2C(=O)NC)NC(=O)C(NC(=O)C(N)CCCCN)c1ccc(O)c(c1)Oc1cc(O)cc4c1 (stereo not drawn) [Compound 24],,,,4 µM,6 µM,12 ± 6 µM,41 ± 8 µM,46 ± 8 µM,1.2 µM,1.9 µM,≧5 μM,87 µM,
NC(=O)CC1NC(=O)C(N)C(O)c2ccc(c(Cl)c2)Oc2cc3cc(c2O)Oc2ccc(cc2)C(O)C2NC(=O)C(NC(=O)C3NC1=O)c1ccc(O)c(c1)-c1c(O)cc(O)cc1C(C(=O)NCC13CC4CC(CC(C4)C1)C3)NC2=O (stereo not drawn) [Compound 107],,40 µM,> 300 µM,5 µM,3.5 µM,,,,,,,,
CCCCCCCCCC[N+](C)(C)CCCNCc1c(O)cc2c(c1O)-c1cc(ccc1O)C1NC(=O)C3NC(=O)C4NC(=O)C(Cc5ccc(c(Cl)c5)Oc5cc3cc(c5O)Oc3ccc(cc3Cl)C(O)C(NC1=O)C(=O)NC2C(=O)NCCCN(C)C)NC(=O)C(N)c1ccc(O)c(c1)Oc1cc(O)cc4c1 (stereo not drawn) [Compound 34],,,,2.7 ± 1.84 µM,4.5 ± 0.7 µM,23 ± 11 µM,68 ± 1 µM,50 ± 8 µM,,,,,
CNC(CC(C)C)C(=O)NC1C(=O)NC(CC(N)=O)C(=O)NC2C(=O)NC3C(=O)NC(C(=O)NC(C(=O)O)c4cc(O)cc(O)c4-c4cc3ccc4O)C(O)c3ccc(cc3)Oc3cc2cc(c3O)Oc2ccc(cc2Cl)C1O (stereo not drawn) [Eremomycin aglycon],,,,50 ± 28 µM,250 µM,> 500 µM,> 500 µM,> 500 µM,,,,,
CNCc1c(O)cc2c(c1O)-c1cc(ccc1O)C1NC(=O)C3NC(=O)C4NC(=O)C(Cc5ccc(c(Cl)c5)Oc5cc3cc(c5O)Oc3ccc(cc3Cl)C(O)C(NC1=O)C(=O)NC2C(=O)NC)NC(=O)C(N)c1ccc(O)c(c1)Oc1cc(O)cc4c1 (stereo not drawn) [Compound 45],,,,15 ± 7.1 µM,17.5 ± 10.6 µM,> 500 µM,> 500 µM,> 500 µM,,,,,
CCCCCCCCCC[N+]1(C)CCN(Cc2c(O)cc3c(c2O)-c2cc(ccc2O)C2NC(=O)C4NC(=O)C5NC(=O)C(Cc6ccc(c(Cl)c6)Oc6cc4cc(c6O)Oc4ccc(cc4Cl)C(O)C(NC2=O)C(=O)NC3C(=O)NCCCN(C)C)NC(=O)C(N)c2ccc(O)c(c2)Oc2cc(O)cc5c2)CC1 (stereo not drawn) [Compound 38],,,,2.1 ± 0.92 µM,10 µM,51 ± 9 µM,91 ± 13 µM,> 100 µM,,,,,
CNC(=O)C1NC(=O)C2NC(=O)C(NC(=O)C3NC(=O)C(CC(N)=O)NC(=O)C(NC(=O)C(CC(C)C)NC)C(O)c4ccc(c(Cl)c4)Oc4cc3cc(c4O)Oc3ccc(cc3)C2O)c2ccc(O)c(c2)-c2c1cc(O)c(CN1CCN(Cc3ccc(-c4ccccc4)cc3)CC1)c2O (stereo not drawn) [Compound 8],,,,4 ± 1.7 µM,5.5 ± 0.7 µM,> 100 µM,> 100 µM,> 100 µM,2.3 µM,1.5 µM,≧20 μM,> 50 µM,pronounced activity
CCCCCCCCCCNC(=O)C(N)CCCCNCc1c(O)cc2c(c1O)-c1cc(ccc1O)C1NC(=O)C3NC(=O)C4NC(=O)C(Cc5ccc(c(Cl)c5)Oc5cc3cc(c5O)Oc3ccc(cc3Cl)C(O)C(NC1=O)C(=O)NC2C(=O)NCCCN(C)C)NC(=O)C(N)c1ccc(O)c(c1)Oc1cc(O)cc4c1 (stereo not drawn) [Compound 16],,,,3.5 ± 0.7 µM,5.5 ± 2.1 µM,19 ± 5 µM,76 ± 8 µM,389 ± 99 µM,2.5 µM,2.4 µM,≧5-50 μM,137 µM,
CCCCCCCCCCCNC1C(=O)NC2Cc3ccc(c(Cl)c3)Oc3cc4cc(c3O)Oc3ccc(cc3Cl)C(O)C3NC(=O)C(NC(=O)C4NC(=O)C(NC2=O)c2cc(O)cc(c2)Oc2cc1ccc2O)c1ccc(O)c(c1)-c1c(O)cc(O)cc1C(C(=O)NCCCN(C)C)NC3=O (stereo not drawn) [Compound 32],,,,5.5 ± 2.1 µM,12.5 ± 3.5 µM,23 ± 7 µM,35 ± 2 µM,90 ± 27 µM,≥ 5 µM,2.3 µM,20 µM,30 µM,
CCCCCCCCCCNC(=O)C(N)CCCCNC(=O)C1NC(=O)C2NC(=O)C(NC(=O)C3NC(=O)C4NC(=O)C(Cc5ccc(c(Cl)c5)Oc5cc3cc(c5O)Oc3ccc(cc3Cl)C2O)NC(=O)C(N)c2ccc(O)c(c2)Oc2cc(O)cc4c2)c2ccc(O)c(c2)-c2c(O)cc(O)cc21 (stereo not drawn) [Compound 23],,,,2.6 ± 2 µM,5.5 ± 0.7 µM,5.7 ± 0.27 µM,22 ± 22 µM,58 ± 35 µM,,,,,
